The source of these data is ChEMBL document CHEMBL3425436, “Assessing the oral bioavailability of difluorosialic acid prodrugs, potent viral neuraminidase inhibitors, using a snapshot PK screening assay” (Bioorg Med Chem Lett, 2015).

Series [1] in a line: Total plasma concentration in CD1 mouse at 30 mg/kg, po measured at 60 mins by reversed-phase UPLC/MS analysis. Type of series: ADME, organism-based. More on the design: dose 30 mg/kg, route oral.
A short description of series [2]: Total plasma concentration in CD1 mouse at 30 mg/kg, po measured at 20 mins by reversed-phase UPLC/MS analysis. Type of series: ADME, organism-based. More on the design: dose 30 mg/kg, route oral.
The subject of series [3] is Mus musculus. The experiment in a line: Total plasma concentration in CD1 mouse assessed as (2R,3R,4R,5R,6R)-5-acetamido-4-amino-2,3-difluoro-6-((1R,2R)-1,2,3-trihydroxypropyl)tetrahydro-2H-pyran-2-carboxylic acid at 30 mg/kg, po measured at 20 mins by reversed-phase UPLC/MS analysis. More on the design: dose 30 mg/kg, route oral. The following applies: in vivo. It is filed as ADME, organism-based.

In series [4] the test system is Mus musculus. The experiment in a line: Cmax in CD1 mouse assessed as (2R,3R,4R,5R,6R)-5-acetamido-4-amino-2,3-difluoro-6-((1R,2R)-1,2,3-trihydroxypropyl)tetrahydro-2H-pyran-2-carboxylic acid at 30 mg/kg, po. It is filed as ADME, organism-based. More on the design: dose 30 mg/kg, route oral. The following applies: in vivo.
Series [5] in a line: Stability in simulated gastric fluid at 10 uM at pH 1 measured at 60 mins. Type of series: ADME. The following applies: read-out: Stability.
Series [6] is described as follows: Metabolic stability in mouse plasma at 10 uM measured at 60 mins. Type of series: ADME, cell-free. The settings on record: read-out: Stability.
Series [7] has as its system Mus musculus. Nature of the series: Total plasma concentration in CD1 mouse assessed as (2R,3R,4R,5R,6R)-5-acetamido-4-amino-2,3-difluoro-6-((1R,2R)-1,2,3-trihydroxypropyl)tetrahydro-2H-pyran-2-carboxylic acid at 30 mg/kg, po measured at 60 mins by reversed-phase UPLC/MS analysis. It is filed as ADME, organism-based. On the set-up: dose 30 mg/kg, route oral. The following applies: in vivo, 1 h.

For series [8], the system named is Mus musculus. The experiment in a line: Oral bioavailability in CD1 mouse assessed as (2R,3R,4R,5R,6R)-5-acetamido-4-amino-2,3-difluoro-6-((1R,2R)-1,2,3-trihydroxypropyl)tetrahydro-2H-pyran-2-carboxylic acid at 30 mg/kg. Type of series: ADME, organism-based. The settings on record: in vivo.
The nature of series [9]: Stability in simulated gastric fluid at 10 uM at pH 4 measured at 60 mins. It is filed as ADME. The following applies: read-out: Stability.
Series [10] can be described thus: Stability in simulated gastric fluid at 10 uM at pH 1 measured at 15 mins. Type of series: ADME. The settings on record: read-out: Stability.
Series [11] concerns Mus musculus. The experiment in a line: Tmax in CD1 mouse assessed as (2R,3R,4R,5R,6R)-5-acetamido-4-amino-2,3-difluoro-6-((1R,2R)-1,2,3-trihydroxypropyl)tetrahydro-2H-pyran-2-carboxylic acid at 30 mg/kg, po. Type of series: ADME, organism-based. More on the design: dose 30 mg/kg, route oral. The following applies: in vivo.
The nature of series [12]: Metabolic stability in mouse plasma at 10 uM measured at 15 mins. Type of series: ADME, cell-free. The following applies: read-out: Stability.
Series [13] in a line: Stability in simulated gastric fluid at 10 uM at pH 4 measured at 15 mins. It is filed as ADME. The settings on record: read-out: Stability.
For series [14], the system named is Mus musculus. The experiment in a line: AUC in CD1 mouse assessed as (2R,3R,4R,5R,6R)-5-acetamido-4-amino-2,3-difluoro-6-((1R,2R)-1,2,3-trihydroxypropyl)tetrahydro-2H-pyran-2-carboxylic acid at 30 mg/kg, po. The following applies: in vivo. Type of series: ADME, organism-based, Plasma. On the set-up: dose 30 mg/kg, route oral.
The nature of series [15]: Tmax in CD1 mouse at 30 mg/kg, po. Type of series: ADME, organism-based. More on the design: dose 30 mg/kg, route oral. The following applies: in vivo.
In series [16] the test system is Mus musculus. The experiment in a line: AUC in CD1 mouse at 30 mg/kg, po. Type of series: ADME, organism-based, Plasma. More on the design: dose 30 mg/kg, route oral. The settings on record: in vivo.
Series [17] is described as follows: Oral bioavailability in CD1 mouse at 30 mg/kg. Type of series: ADME, organism-based. The settings on record: in vivo.
Series [18] is described as follows: Half life in CD1 mouse at 30 mg/kg, po. The following applies: in vivo. It is filed as ADME, organism-based. On the set-up: dose 30 mg/kg, route oral.
Series [19] in a line: Cmax in CD1 mouse at 30 mg/kg, po. It is filed as ADME, organism-based. On the set-up: dose 30 mg/kg, route oral. The following applies: in vivo.
Series [20] relates to Mus musculus. Nature of the series: Prodrug conversion in CD1 mouse assessed as formation of (2R,3R,4R,5R,6R)-5-acetamido-4-amino-2,3-difluoro-6-((1R,2R)-1,2,3-trihydroxypropyl)tetrahydro-2H-pyran-2-carboxylic acid at 30 mg/kg, po. Type of series: ADME, organism-based. On the set-up: dose 30 mg/kg, route oral. The following applies: in vivo.
Series [21] is described as follows: Total plasma concentration in CD1 mouse at 50 mg/kg, po measured at 60 mins by reversed-phase UPLC/MS analysis. Type of series: ADME, organism-based. More on the design: dose 50 mg/kg, route oral.
In series [22] the test system is Mus musculus. The experiment in a line: AUC in CD1 mouse at 10 mg/kg, iv. The settings on record: in vivo. On the set-up: dose 10 mg/kg, route intravenous. Type of series: ADME, organism-based, Plasma.
Series [23] in a line: Total plasma concentration in CD1 mouse at 50 mg/kg, po measured at 20 mins by reversed-phase UPLC/MS analysis. Type of series: ADME, organism-based. More on the design: dose 50 mg/kg, route oral.

The structures appear in SMILES notation.

Broadly, the Cmax is the peak of the concentration-time curve. Broadly, the Tmax is the time at which the peak concentration occurs. One may read the bioavailability as the share of a dose that reaches the circulation, judged against a reference dose that is usually intravenous. The half-life is how long it takes for the measured level to halve. A lower half-life goes with rapid decline.

`CC(=O)N[C@H]1[C@H]([C@H](O)[C@H](O)CO)OC(C(=O)O)=C[C@@H]1N=C(N)N` [ZANAMIVIR] registered a concentration at 1 h in series [1] of 1.3 µM. For the same compound, in series [2], the concentration at 20 min stood at 1.31 µM.
In the case of `CCCCCOC(=O)[C@]1(F)O[C@@H]([C@H](O)[C@H](O)CO)[C@H](NC(C)=O)[C@@H](N)[C@H]1F`, the results for the concentration in the series on Mus musculus [3] and in the series with Mus musculus [7] were 2.74 µM and 3.5 µM, respectively. For the same compound, the Cmax in the series on Mus musculus [4] came out at 4.7 µM. The remaining at 1 h, 10 µM in series [5] is 96%; in series [6], 24%; in series [9], 100%. The F in the series with Mus musculus [8] turned out to be 5.5%. The results for the remaining at 0.25 h, 10 µM in series [10], in series [12] and in series [13] were 99%, 81% and 100%, respectively. In the series on Mus musculus [11], the time to peak (Tmax) was 1 h. The AUC with Mus musculus [14] turned out to be 462 µmol·min.
In series [1], `CCOC(=O)C1=C[C@@H](OC(CC)CC)[C@H](NC(C)=O)[C@@H](N)C1` [OSELTAMIVIR] returned a concentration at 1 h of 13.3 µM. For the same compound, the time to peak (Tmax) in series [15] is 0.5 h. Moreover, the AUC with Mus musculus [16] is 1706 µmol·min. The bioavailability in series [17] was determined as 64.5%. In series [18], this compound yielded a half-life of 1.23 h. Moreover, the concentration at 20 min in series [2] stood at 8.41 µM. This compound yielded a maximum concentration (Cmax) in series [19] of 13.5 µM.
In the case of `CC(=O)N[C@@H]1[C@@H](N)[C@@H](F)[C@](F)(C(=O)OC(C)C)O[C@H]1[C@H](O)[C@H](O)CO`, the results for the concentration with Mus musculus [3] and in the series on Mus musculus [7] were 12.2 µM and 13 µM, respectively. Further, the Cmax in the series on Mus musculus [4] came to 0.5 µM. The figures for the remaining at 1 h, 10 µM in series [5], in [6] and in series [9] were 98%, 87% and 99%, respectively. Further, the F in the series with Mus musculus [8] came out at 0.9%. Further, the values for the remaining at 0.25 h, 10 µM in series [10], in series [12] and in series [13] were 100%, 100% and 99%, respectively. Also, in the series on Mus musculus [11], the Tmax came to 1 h. In addition, the AUC in the series on Mus musculus [14] is 78 µmol·min.
For the compound `COC(=O)[C@]1(F)O[C@@H]([C@H](O)[C@H]2COC(C)(C)O2)[C@H](NC(C)=O)[C@@H](N)[C@H]1F`, the concentration in the series with Mus musculus [3] stood at 2.57 µM; in the series on Mus musculus [7], 4.86 µM. Also, the Drug metabolism entry in the series with Mus musculus [20] is given as “metabolite_detected”.
`CC(=O)N[C@@H]1[C@@H](N)[C@@H](F)[C@](F)(C(=O)O)O[C@H]1[C@H](O)[C@H](O)CO`: the concentration at 1 h in series [1] stood at 4.93 µM; in series [21] it was 8.21 µM. The time to peak (Tmax) in series [15] is 0.333 h. In addition, the AUC turned out to be 320 µmol·min in the series with Mus musculus [16] and 3394 µmol·min with Mus musculus [22]. In series [17], this compound displayed a bioavailability of 3.1%. The compound also showed a half-life in [18] of 3.27 h. The concentration at 20 min in [23] came out at 4.5 µM; in series [2] it was 2.7 µM. In series [19], this compound showed a Cmax of 2.8 µM.
